The target of assay [1] is T1, interaction between PD-1 and PD-L1 expressed on cell surfaces (Jurkat/NF-κB-luc/PD1 cells cocultured with Raji-PD-L1 cells) (Homo sapiens, UniProt Q9NZQ7).
T1 construct: expressed in transfected cells; host or cells: Raji cells (PD-L1); Jurkat cells (PD-1, NF-κB-luc reporter)
Nature of the assay: Jurkat reporter gene cellular assay. The format is cell-based. The conditions noted are these: OKT3 1 μg/mL stimulation, 6 hrs, activation fold vs DMSO. As to the method:
The effect of compounds of the examples of the present invention on the interaction between PD-1 and PD-L1 expressed on cell surfaces, and the related influence on T cell functions, were determined by a Jurkat reporter gene cellular assay.
Briefly, the reporter gene plasmid of NF-κB-luc and the plasmid of human PD-1 were transfected into Jurkat cells to establish a stably transfected cell line capable of stably expressing both PD-1 and NF-κB-Luc reporter genes; the expression level of PD-1 on the cell surface was confirmed by flow cytometry; and the expression of the reporter gene was confirmed via the response of the reporter gene stimulated by OKT-3 and Raji cells.
In addition, the plasmid of human PD-L1 was transfected into Raji cells to obtain a cell line capable of stably expressing PD-L1. Jurkat/NF-κB-luc/PD1 cells and Raji-PD-L1 cells were then cocultured and stimulated with OKT-3. On this basis, the compounds were added, and the enhancement of the signal pathway of T cell activation by the inhibitory effect of the compounds on the interaction between PD-1 and PD-L1 was evaluated by readings of reporter gene responses. The specific experimental process was as follows:
1) 30 μL of compound or antibody solution was added to each well of a white 96-well plate (Corning, 3610) at different diluted concentrations, and 10 μL of OKT3 (Biolegend, 317326) was then added (the final concentration of OKT3: 1 μg/mL);
2) 20 μL of Raji-PD-L1 cell suspension was added to each well with 5*10^4 cells for each well, and was incubated in an incubator for 20 min;
3) 20 μL of Jurkat/NF-Kb-luc/PD-1 cell suspension was added to each well with 5*10^4 cells for each well, and was well mixed, and 6 hrs later, Bright-glo (Promega, E2620) was applied and plates were read on Envision;
4) The reading of each well treated with the compound was compared with the reading of each well treated with DMSO to obtain the activation fold of the compound; and
5) EC50 values of compounds of the examples of the present invention were determined by non-linear regression analysis of activation folds at different compound concentrations.

The target in assay [2] is T2, interaction between PD-1 and PD-L1 (Homo sapiens, UniProt Q9NZQ7).
T2 construct: purchased Cisbio 64ICP01PEG or 64ICP01PEH
Briefly: PD1-PDL1 HTRF binding activity test. The conditions noted are these: Cisbio PD-1/PD-L1 binding assay kit; percent inhibition vs DMSO. As to the method: The effect of compounds of the examples of the present invention on the interaction between PD-1 and PD-L1 was determined by the PD-1/PD-L1 binding assay kit from Cisbio (#64ICP01PEG or 64ICP01PEH). The detailed experimental process was as follows:
1) Pre-diluted compound solution, 4 μL of Tag1-PD-L1 and 4 μL of Tag2-PD1 were added to each well of a 384-well plate;
2) After the mixture was incubated at room temperature for 15 min, 5 μL of anti-Tag1-Eu3+ antibody and 5 μL of anti-Tag2-XL665 antibody were then added;
3) After incubated for 2 hrs at room temperature or overnight at 4° C., plates were read on Envision of Perkin Elmer; and readings at 665 nm and 620 nm were recorded, and the ratio of the two readings was taken as a reading for each well;
4) The reading of each well after compound treatment was compared with the reading of DMSO treated wells to obtain the percent inhibition of the compound; and
5) IC50 values of compounds of the examples of the present invention were determined by non-linear regression analysis of percent inhibition at different compound concentrations.

The structures appear in SMILES notation.

T2 sequence (Q9NZQ7 19-238 limits assumed): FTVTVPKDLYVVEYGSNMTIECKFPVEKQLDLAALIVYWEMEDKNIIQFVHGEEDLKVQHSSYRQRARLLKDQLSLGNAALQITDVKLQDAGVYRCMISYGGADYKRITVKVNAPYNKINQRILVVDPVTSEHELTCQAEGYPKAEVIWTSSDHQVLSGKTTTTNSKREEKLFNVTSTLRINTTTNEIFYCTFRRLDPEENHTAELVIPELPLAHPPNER
T1 sequence (Q9NZQ7 19-290): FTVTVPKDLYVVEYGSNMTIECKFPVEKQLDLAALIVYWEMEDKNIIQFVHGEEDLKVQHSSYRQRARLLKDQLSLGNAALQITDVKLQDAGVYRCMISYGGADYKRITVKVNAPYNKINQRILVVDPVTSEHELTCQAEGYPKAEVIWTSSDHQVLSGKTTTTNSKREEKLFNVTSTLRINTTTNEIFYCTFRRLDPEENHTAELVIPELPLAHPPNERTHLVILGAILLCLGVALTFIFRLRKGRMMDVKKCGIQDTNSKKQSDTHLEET

For `Cc1c(NC(=O)c2cc(C3CC3)c(CNC(C)CO)cn2)cccc1-c1cccc(NC(=O)c2cc(C3CC3)c(CN3CCCC[C@H]3C(=O)O)cn2)c1C` (stereo in doubt) [Example 3, (S)-1-((4-cyclopropyl-6-((3′-(4-cyclopropyl-5-((((R)-1-hydroxypropan-2-yl)amino)methyl)picolinamido)-2,2′-dimethyl-[1,1′-biphenyl]-3-yl)carbamoyl)pyridin-3-yl)methyl)piperidine-2-carboxylic acid], in assay [1], the response was half-maximal at 14.9 nM (EC50). This molecule also gave an IC50 in assay [2] of 1.07 nM.

With `Cc1c(NC(=O)c2cc(C3CC3)c(CNCCO)cn2)cccc1-c1cccc(NC(=O)c2cc(C3CC3)c(CN3CCCC[C@H]3C(=O)O)cn2)c1C` [Example 1, (S)-1-((4-cyclopropyl-6-((3′-(4-cyclopropyl-5-(((2-hydroxyethyl)amino)methyl)picolinamido)-2,2′-dimethyl-[1,1′-biphenyl]-3-yl)carbamoyl)pyridin-3-yl)methyl)piperidine-2-carboxylic acid], in assay [1], a half-maximal response (EC50) required 6.8 nM. In assay [2], this molecule showed an IC50 of 1.07 nM.

The molecule `Cc1c(NC(=O)c2cc(C3CC3)c(CN[C@H](C)CO)cn2)cccc1-c1cccc(NC(=O)c2cc(C3CC3)c(CN3CCCC[C@H]3C(=O)O)cn2)c1C` [Example 2, (S)-1-((4-cyclopropyl-6-((3′-(4-cyclopropyl-5-((((R)-1-hydroxypropan-2-yl)amino)methyl)picolinamido)-2,2′-dimethyl-[1,1′-biphenyl]-3-yl)carbamoyl)pyridin-3-yl)methyl)piperidine-2-carboxylic acid] yielded an EC50 in assay [1] of 9.2 nM. In assay [2], this molecule had an IC50 of 1.21 nM.

For `Cc1c(NC(=O)c2cc(C3CC3)c(CN[C@H]3CCC[C@@H]3O)cn2)cccc1-c1cccc(NC(=O)c2cc(C3CC3)c(CN3CCCC[C@H]3C(=O)O)cn2)c1C` [Example 4, (S)-1-((4-cyclopropyl-6-((3′-(4-cyclopropyl-5-((((1S,2S)-2-hydroxycyclopentyl)amino)methyl)picolinamido)-2, 2′-dimethyl-[1,1′-biphenyl]-3-yl)carbamoyl)pyridin-3-yl)methyl)piperidine-2-carboxylic acid], a half-maximal effect in assay [1] (EC50) was put at 3.2 nM. Also, the IC50 in assay [2] is 1.02 nM.

Regarding `Cc1c(NC(=O)c2cc(C3CC3)c(CN[C@@H]3CCC[C@H]3O)cn2)cccc1-c1cccc(NC(=O)c2cc(C3CC3)c(CN3CCCC[C@H]3C(=O)O)cn2)c1C` [Example 6, (S)-1-((4-cyclopropyl-6-((3′-(4-cyclopropyl-5-((((1R,2R)-2-hydroxycyclopentyl)amino)methyl)picolinamido)-2, 2′-dimethyl-[1,1′-biphenyl]-3-yl)carbamoyl)pyridin-3-yl)methyl)piperidine-2-carboxylic acid], a half-maximal effect in assay [1] (EC50) was put at 49.3 nM. This molecule returned an IC50 in assay [2] of 1.69 nM.

In assay [1], `CNCc1cnc(C(=O)Nc2cccc(-c3cccc(NC(=O)c4cc(C5CC5)c(CN5CCCC[C@H]5C(=O)O)cn4)c3C)c2C)cc1C1CC1` [Example 7, (S)-1-((4-cyclopropyl-6-((3′-(4-cyclopropyl-5-((methylamino)methyl)picolinamido)-2,2′-dimethyl-[1,1′-biphenyl]-3-yl)carbamoyl)pyridin-3-yl)methyl) piperidine-2-carboxylic acid] came in with an EC50 of 24.1 nM. The same molecule showed an IC50 in assay [2] of 0.49 nM.

Turning to `CCNCc1cnc(C(=O)Nc2cccc(-c3cccc(NC(=O)c4cc(C5CC5)c(CN5CCCC[C@H]5C(=O)O)cn4)c3C)c2C)cc1C1CC1` [Example 8, (S)-1-((4-cyclopropyl-6-((3′-(4-cyclopropyl-5-((ethylamino)methyl)picolinamido)-2,2′-dimethyl-[1,1′-biphenyl]-3-yl)carbamoyl)pyridin-3-yl)methyl) piperidine-2-carboxylic acid], in assay [1], the EC50 was determined as 23.8 nM. In assay [2], this molecule gave an IC50 of 1.27 nM.

Take `Cc1c(NC(=O)c2cc(C3CC3)c(CNC(C)C)cn2)cccc1-c1cccc(NC(=O)c2cc(C3CC3)c(CN3CCCC[C@H]3C(=O)O)cn2)c1C` [Example 9, (S)-1-((4-cyclopropyl-6-((3′-(4-cyclopropyl-5-((isopropylamino)methyl)picolinamido)-2,2′-dimethyl-[1,1′-biphenyl]-3-yl)carbamoyl)pyridin-3-yl)methyl) piperidine-2-carboxylic acid]: the 50% effective concentration (EC50) in assay [1] was 33.9 nM. Further, the IC50 in assay [2] is 5.1 nM.

Turning to `Cc1c(NC(=O)c2cc(C3CC3)c(CNC3CC3)cn2)cccc1-c1cccc(NC(=O)c2cc(C3CC3)c(CN3CCCC[C@H]3C(=O)O)cn2)c1C` [Example 10, (S)-1-((4-cyclopropyl-6-((3′-(4-cyclopropyl-5-((cyclopropylamino)methyl)picolinamido)-2,2′-dimethyl-[1,1′-biphenyl]-3-yl)carbamoyl)pyridin-3-yl)methyl) piperidine-2-carboxylic acid], a half-maximal response in assay [1] (EC50) required 120 nM. In assay [2], this molecule returned an IC50 of 3.38 nM.

`Cc1c(NC(=O)c2cc(C3CC3)c(CNC3CCCC3)cn2)cccc1-c1cccc(NC(=O)c2cc(C3CC3)c(CN3CCCC[C@H]3C(=O)O)cn2)c1C` [Example 11, (S)-1-((4-cyclopropyl-6-((3′-(4-cyclopropyl-5-((cyclopentylamino)methyl)picolinamido)-2,2′-dimethyl-[1,1′-biphenyl]-3-yl)carbamoyl)pyridin-3-yl)methyl) piperidine-2-carboxylic acid] yielded an EC50 in assay [1] of 14.5 nM. The IC50 in assay [2] came out at 3.19 nM.

`Cc1c(NC(=O)c2cc(C3CC3)c(CN3CCCC3)cn2)cccc1-c1cccc(NC(=O)c2cc(C3CC3)c(CN3CCCC[C@H]3C(=O)O)cn2)c1C` [Example 12] gave an EC50 in assay [1] of 10.6 nM. The same molecule came in with an IC50 in assay [2] of 1.02 nM.

Take `Cc1c(NC(=O)c2cc(C3CC3)c(CN3CC[C@@H](O)C3)cn2)cccc1-c1cccc(NC(=O)c2cc(C3CC3)c(CN3CCCC[C@H]3C(=O)O)cn2)c1C` [Example 13, (S)-1-((4-cyclopropyl-6-((3′-(4-cyclopropyl-5-(((R)-3-hydroxypyrrolidin-1-yl)methyl)picolinamido)-2,2′-dimethyl-[1,1′-biphenyl]-3-yl)carbamoyl)pyridin-3-yl)methyl)piperidine-2-carboxylic acid]: in assay [1], a half-maximal response (EC50) required 11.8 nM. Further, the IC50 in assay [2] turned out to be 1.48 nM.

`Cc1c(NC(=O)c2cc(C3CC3)c(CN3CC[C@H](O)C3)cn2)cccc1-c1cccc(NC(=O)c2cc(C3CC3)c(CN3CCCC[C@H]3C(=O)O)cn2)c1C` [Example 14, (S)-1-((4-cyclopropyl-6-((3′-(4-cyclopropyl-5-(((S)-3-hydroxypyrrolidin-1-yl)methyl)picolinamido)-2,2′-dimethyl-[1,1′-biphenyl]-3-yl)carbamoyl)pyridin-3-yl)methyl)piperidine-2-carboxylic acid]: it took 8.2 nM to reach a half-maximal effect in assay [1] (EC50). Moreover, in assay [2], the IC50 worked out at 1.76 nM.

As to `Cc1c(NC(=O)c2cc(C3CC3)c(CN3CC(C)(O)C3)cn2)cccc1-c1cccc(NC(=O)c2cc(C3CC3)c(CN3CCCC[C@H]3C(=O)O)cn2)c1C` [Example 15, (S)-1-((4-cyclopropyl-6-((3′-(4-cyclopropyl-5-((3-hydroxy-3-methylazetidin-1-yl)methyl)picolinamido)-2,2′-dimethyl-[1,1′-biphenyl]-3-yl)carbamoyl)pyridin-3-yl)methyl)piperidine-2-carboxylic acid], the midpoint of the response in assay [1], the EC50, lay at 15.1 nM. The same molecule registered an IC50 in assay [2] of 0.68 nM.

Consider `CCOC(=O)[C@@H](CO)NCc1cnc(C(=O)Nc2cccc(-c3cccc(NC(=O)c4cc(C5CC5)c(CN5CC(C)(O)C5)cn4)c3C)c2C)cc1C1CC1` [Example 36-1, ethyl ((4-cyclopropyl-6-((3′-(4-cyclopropyl-5-((3-hydroxy-3-methylazetidin-1-yl)methyl)picolinamido)-2,2′-dimethyl-[1,1′-biphenyl]-3-yl)carbamoyl)pyridin-3-yl)methyl)-D-serinate], for which the IC50 in assay [2] was determined as 64.3 nM.

Source of the values: US20220380342A1, “BIPHENYL DERIVATIVES FOR BLOCKING PD-1/PD-L1 INTERACTION, PREPARATION METHOD THEREFOR AND USE THEREOF” (Abbisko Therapeutics Co., Ltd., priority 2019, published 2022).
